From ChEMBL document CHEMBL3045552, “In vivo screening of diarylimidazoles as anticonvulsant agents” (Med Chem Res, 2012) come the findings set out here.

The structures appear in SMILES notation. The source made the active and inactive calls. The calls are words filed in the database; no cut-off is given here.

Data set [1] deals with Mus musculus. Put plainly: Anticonvulsant activity in Mus musculus CF1 albino (mouse) assessed as protection against subcutaneous metrazol-induced seizures at 100 mg/kg, ip measured at 4 hr. Type of data set: functional, organism-based. More on the design: dose 100 mg/kg.
Data set [2] deals with Mus musculus. Put plainly: Anticonvulsant activity in Mus musculus CF1 albino (mouse) assessed as protection against subcutaneous metrazol-induced seizures at 100 mg/kg, ip measured at 0.5 hr. More on the design: dose 100 mg/kg. Type of data set: functional, organism-based.
In data set [3] the test system is Mus musculus. Put plainly: Anticonvulsant activity in Mus musculus CF1 albino (mouse) assessed as protection against maximal electroshock-induced seizures at 100 mg/kg, ip measured at 0.5 hr. The format is functional, organism-based. The arrangement: dose 100 mg/kg. A general note: Protection in the maximal electroshock model is a classic sign of anticonvulsant action.

Data set [4] has as its system Mus musculus. The experiment in a line: Neurotoxicity in Mus musculus CF1 albino (mouse) assessed as minimal motor impairment at 30 mg/kg, ip measured at 0.5 hr by rotorod test. Type of data set: toxicity, organism-based. The arrangement: dose 30 mg/kg, route intraperitoneal. The settings on record: in vivo. Background: In the rotarod test animals must keep their balance on a rotating rod.

For data set [5], the system named is Mus musculus. Put plainly: Anticonvulsant activity in Mus musculus CF1 albino (mouse) assessed as protection against subcutaneous metrazol-induced seizures at 300 mg/kg, ip measured at 4 hr. The format is functional, organism-based. More on the design: dose 300 mg/kg.
In data set [6] the test system is Mus musculus. Put plainly: Neurotoxicity in Mus musculus CF1 albino (mouse) assessed as minimal motor impairment at 100 mg/kg, ip measured at 0.5 hr by rotorod test. The format is toxicity, organism-based. The arrangement: dose 100 mg/kg, route intraperitoneal. The settings on record: in vivo.
Data set [7] concerns Mus musculus. Put plainly: Anticonvulsant activity in Mus musculus CF1 albino (mouse) assessed as protection against maximal electroshock-induced seizures at 300 mg/kg, ip measured at 0.5 hr. Type of data set: functional, organism-based. More on the design: dose 300 mg/kg.
Data set [8] relates to Mus musculus. Put plainly: Anticonvulsant activity in Mus musculus CF1 albino (mouse) assessed as protection against maximal electroshock-induced seizures at 100 mg/kg, ip measured at 4 hr. The format is functional, organism-based. More on the design: dose 100 mg/kg.
Data set [9] has as its system Mus musculus. Put plainly: Neurotoxicity in Mus musculus CF1 albino (mouse) assessed as minimal motor impairment at 300 mg/kg, ip measured at 4 hr by rotorod test. The format is toxicity, organism-based. The arrangement: dose 300 mg/kg, route intraperitoneal. To be noted: in vivo.
Data set [10] concerns Mus musculus. The experiment in a line: Anticonvulsant activity in Mus musculus CF1 albino (mouse) assessed as protection against subcutaneous metrazol-induced seizures at 30 mg/kg, ip measured at 4 hr. The format is functional, organism-based. The arrangement: dose 30 mg/kg.
Data set [11] deals with Mus musculus. Put plainly: Neurotoxicity in Mus musculus CF1 albino (mouse) assessed as minimal motor impairment at 300 mg/kg, ip measured at 0.5 hr by rotorod test. To be noted: in vivo. The arrangement: dose 300 mg/kg, route intraperitoneal. The format is toxicity, organism-based.
The subject of data set [12] is Mus musculus. The experiment in a line: Anticonvulsant activity in Mus musculus CF1 albino (mouse) assessed as protection against maximal electroshock-induced seizures at 30 mg/kg, ip measured at 4 hr. Type of data set: functional, organism-based. The arrangement: dose 30 mg/kg.
For data set [13], the system named is Mus musculus. Put plainly: Anticonvulsant activity in Mus musculus CF1 albino (mouse) assessed as protection against maximal electroshock-induced seizures at 30 mg/kg, ip measured at 0.5 hr. Type of data set: functional, organism-based. More on the design: dose 30 mg/kg.
Data set [14] has as its system Mus musculus. The experiment in a line: Neurotoxicity in Mus musculus CF1 albino (mouse) assessed as minimal motor impairment at 30 mg/kg, ip measured at 4 hr by rotorod test. The arrangement: dose 30 mg/kg, route intraperitoneal. Type of data set: toxicity, organism-based. To be noted: in vivo.
For data set [15], the system named is Mus musculus. The experiment in a line: Neurotoxicity in Mus musculus CF1 albino (mouse) assessed as minimal motor impairment at 100 mg/kg, ip measured at 4 hr by rotorod test. Type of data set: toxicity, organism-based. More on the design: dose 100 mg/kg, route intraperitoneal. The settings on record: in vivo.
Data set [16] relates to Mus musculus. Put plainly: Anticonvulsant activity in Mus musculus CF1 albino (mouse) assessed as protection against subcutaneous metrazol-induced seizures at 30 mg/kg, ip measured at 0.5 hr. Type of data set: functional, organism-based. The arrangement: dose 30 mg/kg.
The test system of data set [17] is Mus musculus. The experiment in a line: Anticonvulsant activity in Mus musculus CF1 albino (mouse) assessed as protection against electrically-induced seizure at 100 mg/kg, ip measured at 1 hr by 6Hz psychomotor seizure test. Type of data set: functional, organism-based. The arrangement: dose 100 mg/kg.
Data set [18] deals with Mus musculus. The experiment in a line: Anticonvulsant activity in Mus musculus CF1 albino (mouse) assessed as protection against subcutaneous metrazol-induced seizures at 300 mg/kg, ip measured at 0.5 hr. The format is functional, organism-based. More on the design: dose 300 mg/kg.
In data set [19] the test system is Mus musculus. Put plainly: Anticonvulsant activity in Mus musculus CF1 albino (mouse) assessed as protection against maximal electroshock-induced seizures at 300 mg/kg, ip measured at 4 hr. Type of data set: functional, organism-based. The arrangement: dose 300 mg/kg.
Data set [20] can be described thus: Neurotoxicity in ip dosed Mus musculus CF1 albino (mouse) assessed as minimal motor impairment measured at 0.25 hr by rotorod test. The format is toxicity, organism-based. To be noted: in vivo.
The test system of data set [21] is Mus musculus. The experiment in a line: Anticonvulsant activity in ip dosed Mus musculus CF1 albino (mouse) assessed as protection against electrically-induced seizure measured at 0.25 hr by 6Hz psychomotor seizure test. Type of data set: functional.
Data set [22] concerns Mus musculus. Put plainly: Anticonvulsant activity in Mus musculus CF1 albino (mouse) assessed as protection against electrically-induced seizure at 100 mg/kg, ip measured at 4 hr by 6Hz psychomotor seizure test. Type of data set: functional, organism-based. More on the design: dose 100 mg/kg.
Data set [23] has as its system Mus musculus. Put plainly: Anticonvulsant activity in Mus musculus CF1 albino (mouse) assessed as protection against electrically-induced seizure at 100 mg/kg, ip measured at 2 hr by 6Hz psychomotor seizure test. The format is functional, organism-based. The arrangement: dose 100 mg/kg.

For `CC(C)c1ccc(-c2nc(-c3ccccc3)c[nH]2)cc1`, the result in data set [1], in data set [2], in data set [3], in data set [5], in data set [8] and in data set [10] was inactive. Also, the outcome in [12], in [13], in [16], in data set [17] and in data set [18] was inactive. Also, the Activity entry in data set [4], in data set [6], in [9], in [11], in [14] and in [15] was “Non-toxic” throughout. In addition, the result in data set [7] and in [19] was Active.

For the molecule `O=C1NC(=O)C(c2ccccc2)(c2ccccc2)N1` [PHENYTOIN], the TD50 – broadly, the dose at which the toxic effect under study appears in half of the subjects – at 0.25 h in [20] is 35.6 mg/kg. Moreover, the ED50 (as a rule, the dose at which the effect has come halfway, by size or by number of responders) in data set [21] was found to be 27.5 mg/kg.

For `CCOc1ccc(-c2nc(-c3ccccc3)c[nH]2)cc1`, the outcome in data set [1], in data set [2], in data set [8], in [10], in data set [22] and in [12] was inactive. For the same molecule, the result in [13], in data set [16], in data set [17], in data set [18], in data set [19] and in data set [23] was inactive. Further, the Activity result in data set [4], in data set [6], in [9], in data set [11], in data set [14] and in data set [15] was “Non-toxic” throughout. The result in data set [7] was Active.

For the molecule `CC(C)Oc1ccc(-c2nc(-c3ccccc3)c[nH]2)cc1`, the outcome in data set [1], in data set [2], in data set [5], in data set [8], in [10] and in [22] was inactive. In addition, the outcome in [12], in data set [16], in data set [18] and in data set [23] was inactive. The result in data set [3], in data set [7], in data set [13] and in data set [19] was Active. Further, the Activity entry in data set [4] is “Non-toxic”; in [6] it was “Non-toxic”; in data set [11], “Toxic”; in [14], “Non-toxic”; in [15], “Non-toxic”.
